Reference: paper PMC9916806, “Tachykinin Receptor-Selectivity of the Potential Glioblastoma-Targeted Therapy, DOTA-[Thi^8,Met(O2)^11]-Substance P” (International Journal of Molecular Sciences, 2023)
Each block holds one compound with its values, some of them ahead of it.

How the values were obtained:
[1] = ref [29]; cited from earlier work
Text: In glioblastoma multiforme NK1Rs are believed to be highly expressed on the tumour cells and also within the tumour neovasculature, conferring the ability to concurrently target vascular and neoplastic structures. […] However, its therapeutic effectiveness is fairly constra ...

NK1R [2] = target: T1, NK1R (Homo sapiens, UniProt P25103); assay: IP accumulation assay, NK1R activation (HEK293-T cells); format: cell-based; details: HEK293-T cells transfected with NK1R, 1 h at 37 °C, mean ± SEM (n = 3)
T1 construct: host or cells: HEK293-T
T1 sequence (P25103 whole entry): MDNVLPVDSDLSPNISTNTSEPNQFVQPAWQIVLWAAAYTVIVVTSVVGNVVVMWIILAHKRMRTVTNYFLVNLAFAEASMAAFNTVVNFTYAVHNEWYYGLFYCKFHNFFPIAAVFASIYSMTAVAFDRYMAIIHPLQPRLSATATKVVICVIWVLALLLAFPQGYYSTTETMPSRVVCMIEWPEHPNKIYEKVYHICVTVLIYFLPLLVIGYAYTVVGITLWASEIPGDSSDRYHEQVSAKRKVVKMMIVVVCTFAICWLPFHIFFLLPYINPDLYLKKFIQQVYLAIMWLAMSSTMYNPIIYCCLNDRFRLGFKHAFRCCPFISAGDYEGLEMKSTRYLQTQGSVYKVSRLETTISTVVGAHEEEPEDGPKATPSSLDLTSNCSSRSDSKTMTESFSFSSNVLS
Text: (§1) pcDNA mammalian expression vectors encoding human NK3R (GenBank accession number: AY462098), NK2R (GenBank accession number: AY322545), NK1R (GenBank accession number: AY462099) and MRGPRX2 (GenBank accession number: NM_054030) were obtained from the Bloomsburg University cDNA Resource Center (www.cdna.org [accessed on 18 October 2018]). The NK1R, NK2R and NK3R vectors included an N-terminal 3xHA epitope tag. The empty vector, pcDNA3.1, was obtained from Thermo Fisher Scientific (Waltham, MA, USA). […] Talnetant was kindly supplied by Dr Mike Trower (NeRRe Therapeutics, Stevenage, UK).
(§2) Modified human embryonic kidney cells (HEK293-T; American Tissue and Cell Culture Collection), which provide a ‘blank’ background (with little/no endogenous tachykinin receptor nor MRGPRX2 expression) and stably express large T-antigen for optimal expression of exogenous proteins, were utilised. […]
(§3) The tachykinin receptors elicit intracellular signalling responses primarily through coupling to, and the activation of, Gαq/11 G proteins. […] These can be isolated using ion exchange chromatography and their radioactivity measured, with the amount of radiolabelled IP generated (i.e., the level of radioactivity measured) being proportional to the signalling activity of the receptor [48]. […]

[3] = set-up: method as in PMID 31480582; details: ref [19]; cited from earlier work
[4] = set-up: method as in PMID 31480582; details: ref [19]; cited from earlier work; remark: listed apart in the source
MRGPRX2 = details: ref [14]; cited from earlier work
Text: Glioblastoma multiforme is one of the most common and most aggressive forms of central nervous system tumour and, despite therapeutic advances, it remains largely incurable. […] SP is a member of the tachykinin family of neuropeptides, of which the other classical members are neurokinin-A (NKA) and ...

[5] = test system: all three tachykinin receptors (NK1R, NK2R, NK3R); details: albeit with differing potencies; ref [11],[13]; cited from earlier work
NK3R [6] = target: T2, NK3R (Homo sapiens, UniProt P29371); assay: IP accumulation assay, NK3R activation (HEK293-T cells); format: cell-based; details: 1 µM SP; Supplemental Figure S3, % of cognate native ligand (NKB) response; single experiment (n=1); also ref [11]
T2 construct: host or cells: HEK293-T
T2 sequence (P29371 1-465): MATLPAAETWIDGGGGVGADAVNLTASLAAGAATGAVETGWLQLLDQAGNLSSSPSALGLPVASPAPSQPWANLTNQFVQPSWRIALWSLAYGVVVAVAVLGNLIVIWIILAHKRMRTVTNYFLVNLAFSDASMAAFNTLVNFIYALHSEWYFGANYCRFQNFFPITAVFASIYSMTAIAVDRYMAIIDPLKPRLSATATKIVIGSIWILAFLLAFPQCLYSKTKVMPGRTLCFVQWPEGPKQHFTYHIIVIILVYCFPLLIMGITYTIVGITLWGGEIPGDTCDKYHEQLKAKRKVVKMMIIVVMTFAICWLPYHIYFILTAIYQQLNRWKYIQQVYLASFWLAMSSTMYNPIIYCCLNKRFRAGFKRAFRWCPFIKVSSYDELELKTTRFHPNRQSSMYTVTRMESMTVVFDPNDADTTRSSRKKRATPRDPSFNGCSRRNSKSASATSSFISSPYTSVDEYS
Text: as §1, §2, §3

NK1R [7] = details: native tachykinins; ref [11],[13]; cited from earlier work
NK3R [8] = test system: NK3R; set-up: method as in PMID 9190866; details: ref [49]; cited from earlier work
Procedure: For single-concentration analyses, cells were incubated with 1 µM [NK1R, NK2R, NK3R and empty vector) or 10 µM [MRGPRX2 and empty vector]

NK3R [9] = target: T2, NK3R; assay: NK3R antagonism, IP accumulation assay; format: cell-based; details: 1 µM compound, 30 min pre-incubation at 37 °C, then 30 nM NKB 1 h; Figure 4; n = 4 (talnetant: two experiments)
Text: as §1
Modified human embryonic kidney cells (HEK293-T; American Tissue and Cell Culture Collection), which provide a ‘blank’ background (with little/no endogenous tachykinin receptor nor MRGPRX2 expression) and stably express large T-antigen for optimal expression of exogenous proteins, were utilised. Cells were cultured in a humidified atmosphere at 37 °C with 5% CO2 in Dulbecco’s Modified Eagle Medium containing GlutaMAX™ (DMEM) (Life Technologies, Carlsbad, CA, USA) supplemented with 10% foetal calf serum (FCS) (Life Technologies, Carlsbad, CA, USA). Cells were passaged regularly to maintain them at less than 80% confluence. […]

Emax (NK1R [2]; HEK-293T, Table 2, % of the maximal response elicited by SP (Figure 3)): 89 ± 1% | EC50 (NK1R [2]; Table 2, comparison of SP with DOTA-[Thi8,Met(O2)11]SP): 3.31 nM
SMILES: CC(C)C[C@H](NC(=O)CNC(=O)[C@H](Cc1cccs1)NC(=O)[C@H](Cc1ccccc1)NC(=O)[C@H](CCC(N)=O)NC(=O)[C@H](CCC(N)=O)NC(=O)[C@@H]1CCCN1C(=O)[C@H](CCCCN)NC(=O)[C@@H]1CCCN1C(=O)[C@H](CCCNC(=N)N)NC(=O)CN1CCN(CC(=O)O)CCN(CC(=O)O)CCN(CC(=O)O)CC1)C(=O)N[C@@H](CCS(C)(=O)=O)C(N)=O [DOTA-[Thi^8,Met(O2)^11]SP, 1,4,7,10-tetraazacyclododecane-1,4,7,10-tetraacetic acid-[Thi^8,Met(O2)^11]-SP]
metabolic stability [1]: metabolically stable | in vivo half-life compared to native SP [3]: increased lipophilicity and in vivo half-life | lipophilicity compared to native SP [4]: increased lipophilicity

NK3R response to SP (NK3R [6]): able to elicit a response
SMILES: CSCC[C@H](NC(=O)[C@H](CC(C)C)NC(=O)CNC(=O)[C@H](Cc1ccccc1)NC(=O)[C@H](Cc1ccccc1)NC(=O)[C@H](CCC(N)=O)NC(=O)[C@H](CCC(N)=O)NC(=O)[C@@H]1CCCN1C(=O)[C@H](CCCCN)NC(=O)[C@@H]1CCCN1C(=O)[C@@H](N)CCCNC(=N)N)C(N)=O [SP, Substance P]
agonism at MRGPRX2 (MRGPRX2): low potency agonist | agonism at all three tachykinin receptors [5]: full agonists | affinity for NK1R (NK1R [7]): highest affinity for NK1R

SMILES: CC[C@H](NC(=O)c1c(O)c(-c2ccccc2)nc2ccccc12)c1ccccc1 [talnetant, (S)-N-(1-phenylpropyl)-3-hydroxy-2-phenylquinoline-4-carboxamide]
NK3R antagonism (NK3R [8]): non-peptide antagonist of the NK3R | inhibition of NK3R activation (NK3R [9]): NKB-induced NK3R activation was completely abolished
